Measurements from US9273338B2, “Chimeric avian-based screening system containing mammalian grafts” (priority 2004, dated 2016).

Key:
[1] = tested on: human skin grafted onto the CAM of a fertilized egg; assay: Human skin irritation quantified with the skin-CAM system; assay type: in vivo
Protocol: FIGS. 2B and 2C quantitate the change in epidermal thickness of CAM-grafted and organ culture-maintained human skin. Epidermal thickness was measured using digital photos, by tracing the epidermis with a digitizing pad and determining area using the public domain scientific imaging software ImageJ (http://rsb.info.nih.gov/ij/). Size bars represent 0.05 mm
Punch biopsies of human skin were grafted onto the CAM of a fertilized egg as described in Example 1. The human skin samples were allowed to incubate for 2 days after grafting in order to allow for the skin to incorporate, and then the adhesive tape sealing of the samples was reopened. The detergent sodium dodecylsulfate (SDS) was applied to different skin samples at different concentrations topically using a small plastic ring cut from a pipette tip keep the irritant in place. The skin samples were then resealed and returned to the incubator for an addition three days, whereupon they underwent routine histological and immunochemical analysis using Abs for the proliferation marker PCNA. PCNA^+ cells were counted in several sections, and the length of the epidermis in the section measured. Results are expressed as PCNA^+ cells/mm.

[2] = tested on: Langerhans cells (LC) in human skin explants cultivated on the CAM; assay: Activation and mobilization of Langerhans cells in human skin grafts on the CAM (CD1a staining); assay type: in vivo
Protocol: Excess fat was manually removed from human skin obtained within 2 hours of surgery. The skin was cut into rectangular/square pieces approximately 7-10 mm on each side and stored on a cold plate at 15° C. in saline. Eggs with an artificial air sac were opened with iris scissors in a sterile hood. The ectodermal surface of the CAM was abraded by touching it briefly with a sterile piece of lens tissue to improve the adherence of the graft. The skin was then gently place on the CAM and stretched out. The eggs were then sealed with scotch tape, and returned to the incubator.
Two-three days after grafting the skin, the eggs were re-opened, and the grafts are evaluated visually for viability. Eggs containing skin that has yellowed or that looks obviously infected were discarded. A plastic ring just smaller than the skin was placed on the graft in order to prevent leakage of the test substance away from the skin, using Vaseline to seal it down. Then, a 50 μl drop of the tested substance was placed on the skin, and the egg was re-sealed and incubated for another 6 hours-5 days. At the end of the re-incubation, the skin was removed from the CAM and prepared for paraffin histology. […]
All the microscopic 400 μm-fields in triplicate sections from each skin sample were counted with a 40× objective. The average number of cells per field was then determined and averaged for that skin sample. […]

Molecule: CCCCCCCCCCCCOS(=O)(=O)[O-].[Na+] [SDS, sodium dodecylsulfate]
- epidermal thickness ([1]; topical SDS treatment, FIG. 3B): no significant differences in epidermal thickness
- epidermal proliferation (PCNA+ cells/mm) ([1]; topical SDS, 1% and 2.5% produce similar results, 3 days after treatment, p<0.05, FIG. 3A): significantly increases epidermal proliferation

Molecule: O=[N+]([O-])c1ccc(F)c([N+](=O)[O-])c1 [DNFB, dinitrofluorobenzene]
- CD1a+ LC in the epidermis ([2]; overnight (O/N) incubation, compared to untreated skin fixed immediately or O/N acetone/olive oil (solvent) treated skin, FIG. 9): significant decrease

B1: LT: lymphotoxin (LT) (protein, UniProt P01374 35-205, looked up)
Lymphotoxin-alpha: LPGVGLTPSAAQTARQHPKMHLAHSTLKPAAHLIGDPSKQNSLLWRANTDRAFLQDGFSLSNNSLLVPTSGIYFVYSQVVFSGKAYSPKATSSPLYLAHEVQLFSSQYPFHVPLLSSQKMVYPGLQEPWLHSMYHGAAFQLTQGDQLSTHTDGIPHLVLSPSTVFFGAFAL
- number of CD1a+ LC in epidermis ([2]; LT-treated skin grafts, FIG. 10): clear decrease
